Results taken from patent publication US9187523B2 (priority 2006, dated 2015).

Molecular target: plasminogen activator (Pla) (Yersinia pestis, UniProt P17811)
Format: biochemical

plasminogen activator (Pla), sequence (P17811 21-312 limits assumed): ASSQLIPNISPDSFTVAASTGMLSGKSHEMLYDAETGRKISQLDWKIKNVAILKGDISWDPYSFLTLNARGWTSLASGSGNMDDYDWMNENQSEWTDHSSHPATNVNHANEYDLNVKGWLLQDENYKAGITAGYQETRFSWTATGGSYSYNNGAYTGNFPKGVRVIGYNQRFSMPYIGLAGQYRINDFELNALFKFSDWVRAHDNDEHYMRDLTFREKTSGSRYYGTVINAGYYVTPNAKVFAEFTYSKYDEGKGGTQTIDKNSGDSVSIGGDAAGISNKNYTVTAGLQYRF

Substance: pepstatin A
- block of plasminogen activator activity: did not block
